Measurements as given in ChEMBL document CHEMBL3638947, “TRPV1 antagonists” (2015).

Molecular target: Transient receptor potential cation channel subfamily V member 1 (Homo sapiens, UniProt Q8NER1)
Test: Activation Assay: The cDNA for human TRPV1 (hTRPV1) was isolated by reverse transcriptase-polymerase chain reaction (RT-PCR) from human small intestine poly A+ RNA supplied by Clontech (Palo Alto, Calif.) using primers designed surrounding the initiation and termination codons identical to the published sequences (Hayes et al. Pain 2000, 88, 205-215). The resulting cDNA PCR products were subcloned into pCIneo mammalian expression vector (Promega) and fully sequenced using fluorescent dye-terminator reagents (Prism, PerkinElmer Applied Biosystems Division) and a PerkinElmer Applied Biosystems Model 373 DNA sequencer or Model 310 genetic analyzer. Expression plasmids encoding the hTRPV1 cDNA were transfected into HEK293 cells using Lipofectamine. Forty-eight hours after transfection, the neomycin-resistant cells were selected with growth medium containing 800 ug/mL Geneticin (Life Technologies, formerly Gibco BRL). Surviving individual colonies were isolated and screened for TRPV1 activity.
Type: cell-based

Chain of Transient receptor potential cation channel subfamily V member 1 (Q8NER1 whole entry): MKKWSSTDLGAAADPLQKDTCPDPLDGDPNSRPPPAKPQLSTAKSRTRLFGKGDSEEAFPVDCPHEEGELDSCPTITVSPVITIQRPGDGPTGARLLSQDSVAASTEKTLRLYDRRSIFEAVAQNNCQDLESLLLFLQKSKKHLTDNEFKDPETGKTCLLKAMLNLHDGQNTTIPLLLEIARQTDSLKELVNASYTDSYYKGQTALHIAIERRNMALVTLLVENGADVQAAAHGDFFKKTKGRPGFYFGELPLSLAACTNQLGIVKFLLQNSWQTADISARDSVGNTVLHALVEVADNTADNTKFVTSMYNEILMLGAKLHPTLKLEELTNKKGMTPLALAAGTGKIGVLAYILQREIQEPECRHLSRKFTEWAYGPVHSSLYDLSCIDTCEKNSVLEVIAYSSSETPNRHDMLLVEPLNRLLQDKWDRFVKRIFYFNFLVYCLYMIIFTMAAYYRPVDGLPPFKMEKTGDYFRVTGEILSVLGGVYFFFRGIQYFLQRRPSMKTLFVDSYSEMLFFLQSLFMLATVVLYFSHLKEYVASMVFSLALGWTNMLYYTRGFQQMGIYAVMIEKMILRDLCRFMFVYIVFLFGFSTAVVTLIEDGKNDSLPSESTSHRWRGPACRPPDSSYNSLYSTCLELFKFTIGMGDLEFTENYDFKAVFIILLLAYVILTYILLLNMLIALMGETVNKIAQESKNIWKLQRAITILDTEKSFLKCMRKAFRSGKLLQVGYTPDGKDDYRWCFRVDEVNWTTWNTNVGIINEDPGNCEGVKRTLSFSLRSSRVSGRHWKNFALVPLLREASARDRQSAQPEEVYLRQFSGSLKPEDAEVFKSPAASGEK

Row | Structure (SMILES) | IC50 [nM]
1 | CN1C(=O)NCc2c(NC(=O)N[C@@H]3CC(CF)(CF)Oc4c3ccc(Cl)c4F)cccc21 | 25
2 | CCC1(CC)C[C@@H](NC(=O)Nc2cccc3c2CNC(=O)N3C)c2ccc(F)cc2O1 | 24
3 | CN1C(=O)NCc2c(NC(=O)N[C@@H]3CC(C)(C)Oc4cc(Cl)ccc43)cccc21 | 42
4 | CN1C(=O)CCc2ccc(NC(=O)N[C@@H]3CCOc4c3cccc4C(F)(F)F)cc21 | 94
5 | CN1C(=O)NCc2c(NC(=O)N[C@@H]3CC(C)(C)Oc4ccccc43)cccc21 | 37
6 | Cn1c(=O)ccc2c(NC(=O)N[C@@H]3CC(C)(C)Oc4cc(F)ccc43)cccc21 | 10
7 | O=C1CCc2ccc(NC(=O)N[C@@H]3CC(CF)(CF)Oc4cc(Cl)ccc43)cc2N1 | 35
8 | CN1C(=O)NCc2c(NC(=O)N[C@@H]3CC(C)(C)c4ccccc43)cccc21 | 29
9 | CN1Cc2ccc(NC(=O)N[C@@H]3CC(C)(C)Oc4c(F)cccc43)cc2NC1=O | 820
